Patent US8188101B2 (AstraZeneca AB, priority 2008, dated 2012)

test system: Aβ42 release; test: Aβ release in cells stably expressing APPswe, Meso Scale Discovery electrochemiluminescence assay; assay type: cell-based, Human; settings: Homo sapiens, SH-SY5Y, HEK or SH-SY5Y cells stably expressing APPswe, 4-6 hours incubation with test compound
Procedure, shortened: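 HEK or SH-SY5Y cells stably expressing APPswe, plated 15-24 h, then exposed to compound (diluted ×200 into fresh medium) for 4-6 h at 37 °C. Secreted Aβ42 in medium quantified by Meso Scale Discovery electrochemiluminescence with specific antibodies; cytotoxicity checked by cellular ATP content.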

Going from `CN1CCc2nc(Nc3ccc(-c4cnco4)cc3)nc(NCC3CCOCC3)c2C1` [Example 85, 6-Methyl-N2-(4-(oxazol-5-yl)phenyl)-N4-((tetrahydro-2H-pyran-4-yl)methyl)-5,6,7,8-tetrahydropyrido[4,3-d]pyrimidine-2,4-diamine] to `OCCN1CCc2nc(Nc3ccc(-c4cnco4)cc3)nc(NCC3CCOCC3)c2C1` [Example 86, 2-(2-(4-(Oxazol-5-yl)phenylamino)-4-((tetrahydro-2H-pyran-4-yl)methylamino)-7,8-dihydropyrido[4,3-d]pyrimidin-6(5H)-yl)ethanol], the IC50 rises from 251 nM to 501 nM (2-fold).

Compared with `Cc1cc(C(C)c2ccccc2)nc(Nc2ccc(-n3ccnc3C)cc2)n1` (centres unmarked) [Example 87, 4-Methyl-N-(4-(2-methyl-1H-imidazol-1-yl)phenyl)-6-(1-phenylethyl)pyrimidin-2-amine], `Cc1nccn1-c1ccc(Nc2nc3c(c(Cc4ccccc4)n2)C[S+]([O-])CC3)cc1` (centres unmarked) [Example 114, 4-Benzyl-N-[4-(2-methyl-1H-imidazol-1-yl)phenyl]-7,8-dihydro-5H-thiopyrano[4,3-d]pyrimidin-2-amine 6-oxide] is 5-fold higher in IC50: 316 nM for the first, 1580 nM for the second. The first is the more potent here.

Going from `CC(=O)N1CCc2nc(Nc3ccc(-c4cnco4)cc3)nc(N(C)C3CCCCC3)c2C1` [Example 88, 1-(4-(Cyclohexyl(methyl)amino)-2-(4-(oxazol-5-yl)phenylamino)-7,8-dihydropyrido[4,3-d]pyrimidin-6(5H)-yl)ethanone] to `CC(=O)N1CCc2nc(Nc3ccc(-c4cnco4)cc3)nc(N3CCCCC3CO)c2C1` (centres unmarked) [Example 94, 1-(4-(2-(Hydroxymethyl)piperidin-1-yl)-2-(4-(oxazol-5-yl)phenylamino)-7,8-dihydropyrido[4,3-d]pyrimidin-6(5H)-yl)ethanone], the IC50 rises from 398 nM to 5010 nM (13-fold).

Going from `CC(=O)N1CCc2nc(Nc3ccc(-c4cnco4)cc3)nc(N(C)c3ccc(F)cc3)c2C1` [Example 89, 1-(4-((4-Fluorophenyl)(methyl)amino)-2-(4-(oxazol-5-yl)phenylamino)-7,8-dihydropyrido[4,3-d]pyrimidin-6(5H)-yl)ethanone] to `CC(=O)N1CCc2nc(Nc3ccc(-c4cnco4)cc3)nc(N(C)Cc3ccccn3)c2C1` [Example 92, 1-(4-(Methyl(pyridin-2-ylmethyl)amino)-2-(4-(oxazol-5-yl)phenylamino)-7,8-dihydropyrido[4,3-d]pyrimidin-6(5H)-yl)ethanone], the IC50 rises from 631 nM to 5010 nM (7.9-fold).

Going from `CC(=O)N1CCc2nc(Nc3ccc(-c4cnco4)cc3)nc(N3CCc4ccccc43)c2C1` [Example 90, 1-(4-(Indolin-1-yl)-2-(4-(oxazol-5-yl)phenylamino)-7,8-dihydropyrido[4,3-d]pyrimidin-6(5H)-yl)ethanone] to `CC(=O)N1CCc2nc(Nc3ccc(-c4cnco4)cc3)nc(N(C)Cc3ccccc3CO)c2C1` [Example 91, 1-(4-((2-(Hydroxymethyl)benzyl)(methyl)amino)-2-(4-(oxazol-5-yl)phenylamino)-7,8-dihydropyrido[4,3-d]pyrimidin-6(5H)-yl)ethanone], the IC50 rises from 631 nM to 2510 nM (4-fold).

Going from `CC(=O)N1CCc2nc(Nc3ccc(-c4cnco4)cc3)nc(N3CCCC(CO)C3)c2C1` (centres unmarked) [Example 93, 1-(4-(3-(Hydroxymethyl)piperidin-1-yl)-2-(4-(oxazol-5-yl)phenylamino)-7,8-dihydropyrido[4,3-d]pyrimidin-6(5H)-yl)ethanone] to `COc1cc(Nc2nc(CCC3CCCO3)c3c(n2)CCN(C(C)=O)C3)ccc1-n1cnc(C)c1` (centres unmarked) [Example 111, 1-(2-(3-Methoxy-4-(4-methyl-1H-imidazol-1-yl)phenylamino)-4-(2-(tetrahydrofuran-2-yl)ethyl)-7,8-dihydropyrido[4,3-d]pyrimidin-6(5H)-yl)ethanone], the IC50 falls from 6310 nM to 251 nM (25-fold). The second is the more potent here.

First: COc1cccc(Cc2nc(Nc3ccc(-n4cnc(C)c4)c(OC)c3)nc3c2CN(C)CC3)c1 [Example 95, N-(3-Methoxy-4-(4-methyl-1H-imidazol-1-yl)phenyl)-4-(3-methoxybenzyl)-6-methyl-5,6,7,8-tetrahydropyrido[4,3-d]pyrimidin-2-amine]
Second: COc1cccc(Cc2nc(Nc3ccc(-n4cnc(C)c4)c(OC)c3)nc3c2CN(C(C)=O)CC3)c1 [Example 96, 1-(2-(3-Methoxy-4-(4-methyl-1H-imidazol-1-yl)phenylamino)-4-(3-methoxybenzyl)-7,8-dihydropyrido[4,3-d]pyrimidin-6(5H)-yl)ethanone]
The IC50 of the first is 1.6-fold lower: 39.8 nM for the first, 63.1 nM for the second. The first is the more potent here.

`COc1cccc(Cc2nc(Nc3ccc(-n4ccnc4C)cc3)nc3c2CN(C(C)=O)CC3)c1` [Example 97, 1-(4-(3-Methoxybenzyl)-2-(4-(2-methyl-1H-imidazol-1-yl)phenylamino)-7,8-dihydropyrido[4,3-d]pyrimidin-6(5H)-yl)ethanone] and `CC(=O)N1CCc2nc(Nc3ccc(-n4ccnc4C)cc3)nc(Cc3ccccc3F)c2C1` [Example 98, 1-(4-(2-Fluorobenzyl)-2-(4-(2-methyl-1H-imidazol-1-yl)phenylamino)-7,8-dihydropyrido[4,3-d]pyrimidin-6(5H)-yl)ethanone] are within 1.5-fold of each other in IC50: 631 nM for the first, 794 nM for the second.

Going from `Cc1nccn1-c1ccc(Nc2nc3c(c(Cc4ccc(F)cc4)n2)CC(C(F)(F)F)CC3)cc1` (centres unmarked) [Example 99, 4-(4-Fluorobenzyl)-N-(4-(2-methyl-1H-imidazol-1-yl)phenyl)-6-(trifluoromethyl)-5,6,7,8-tetrahydroquinazolin-2-amine] to `COc1cc(Nc2nc3c(c(Cc4ccccc4)n2)CNCC3)ccc1-n1cnc(C)c1` [Example 106, 4-Benzyl-N-(3-methoxy-4-(4-methyl-1H-imidazol-1-yl)phenyl)-5,6,7,8-tetrahydropyrido[4,3-d]pyrimidin-2-amine], the IC50 falls from 316 nM to 63.1 nM (5-fold).

Compared with `COc1cccc(Cc2nc(Nc3ccc(-n4cnc(C)c4)c(OC)c3)nc3c2COCC3)c1` [Example 100, N-(3-Methoxy-4-(4-methyl-1H-imidazol-1-yl)phenyl)-4-(3-methoxybenzyl)-7,8-dihydro-5H-pyrano[4,3-d]pyrimidin-2-amine], `COc1cc(Nc2nc3c(c(C(OC)c4ccccc4)n2)COCC3)ccc1-n1cnc(C)c1` (centres unmarked) [Example 101, 4-(Methoxy(phenyl)methyl)-N-(3-methoxy-4-(4-methyl-1H-imidazol-1-yl)phenyl)-7,8-dihydro-5H-pyrano[4,3-d]pyrimidin-2-amine] is 2-fold lower in IC50: 100 nM for the first, 50.1 nM for the second.

`COc1cc(Nc2nc3c(c(CCC4CCCO4)n2)COCC3)ccc1-n1cnc(C)c1` (centres unmarked) [Example 102, N-(3-Methoxy-4-(4-methyl-1H-imidazol-1-yl)phenyl)-4-(2-(tetrahydrofuran-2-yl)ethyl)-7,8-dihydro-5H-pyrano[4,3-d]pyrimidin-2-amine] and `COc1cc(Nc2nc(CCC3CCCO3)c3c(n2)CCN(C)C3)ccc1-n1cnc(C)c1` (centres unmarked) [Example 112, N-(3-Methoxy-4-(4-methyl-1H-imidazol-1-yl)phenyl)-6-methyl-4-(2-(tetrahydrofuran-2-yl)ethyl)-5,6,7,8-tetrahydropyrido[4,3-d]pyrimidin-2-amine] are the same in IC50: 126 nM for the first, 126 nM for the second.

Going from `COc1cc(Nc2nc3c(c(C(C)(C)O)n2)COCC3)ccc1-n1cnc(C)c1` [Example 103, 2-(2-(3-Methoxy-4-(4-methyl-1H-imidazol-1-yl)phenylamino)-7,8-dihydro-5H-pyrano[4,3-d]pyrimidin-4-yl)propan-2-ol] to `COc1cc(Nc2nc3c(c(C(C)n4nc(C)cc4C)n2)COCC3)ccc1-n1cnc(C)c1` (centres unmarked) [Example 104, 4-(1-(3,5-Dimethyl-1H-pyrazol-1-yl)ethyl)-N-(3-methoxy-4-(4-methyl-1H-imidazol-1-yl)phenyl)-7,8-dihydro-5H-pyrano[4,3-d]pyrimidin-2-amine], the IC50 rises from 100 nM to 200 nM (2-fold).

First: COc1cc(Nc2nc3c(c(Cc4ccccc4)n2)CN(CC#N)CC3)ccc1-n1cnc(C)c1 [Example 105, 2-(4-Benzyl-2-(3-methoxy-4-(4-methyl-1H-imidazol-1-yl)phenylamino)-7,8-dihydropyrido[4,3-d]pyrimidin-6(5H)-yl)acetonitrile]
Second: COc1cc(Nc2nc3c(c(Cc4ccccc4)n2)CN(C(C)=O)CC3)ccc1-n1cnc(C)c1 [Example 107, 1-(4-Benzyl-2-(3-methoxy-4-(4-methyl-1H-imidazol-1-yl)phenylamino)-7,8-dihydropyrido[4,3-d]pyrimidin-6(5H)-yl)ethanone]
The IC50 of the first is 1.6-fold lower: 15.8 nM for the first, 25.1 nM for the second.

Compared with `COc1cc(Nc2nc3c(c(C(C)n4nc(C)cc4C)n2)CN(C(C)=O)CC3)ccc1-n1cnc(C)c1` (centres unmarked) [Example 108, 1-(4-(1-(3,5-Dimethyl-1H-pyrazol-1-yl)ethyl)-2-(3-methoxy-4-(4-methyl-1H-imidazol-1-yl)phenylamino)-7,8-dihydropyrido[4,3-d]pyrimidin-6(5H)-yl)ethanone], `COc1cc(Nc2nc3c(c(CCN4CCCC4=O)n2)COCC3)ccc1-n1cnc(C)c1` [Example 110, 1-(2-(2-(3-Methoxy-4-(4-methyl-1H-imidazol-1-yl)phenylamino)-7,8-dihydro-5H-pyrano[4,3-d]pyrimidin-4-yl)ethyl)pyrrolidin-2-one] is 5-fold higher in IC50: 501 nM for the first, 2510 nM for the second.

Work on `COc1cc(Nc2nc3c(c(COC4CCCC4)n2)COCC3)ccc1-n1cnc(C)c1` [Example 109, 4-(Cyclopentyloxymethyl)-N-(3-methoxy-4-(4-methyl-1H-imidazol-1-yl)phenyl)-7,8-dihydro-5H-pyrano[4,3-d]pyrimidin-2-amine] yielded an IC50 of 20 nM.
